Data reported in patent publication US20200207989A1, “FLUORESCENT PROBE FOR ALDH3A1 DETECTION” (The University of Tokyo, priority 2016, published 2020).

What was measured:
ALDH3A1 = biological target: T1, ALDH3A1 (Homo sapiens, UniProt P30838); experiment: Kinetic characteristics (Michaelis-Menten Km, Kcat) with ALDH3A1; assay type: biochemical; details: five minutes at 37° C., Tris buffer pH 7.5
T1 construct: purchased
T1 sequence (P30838 1-453): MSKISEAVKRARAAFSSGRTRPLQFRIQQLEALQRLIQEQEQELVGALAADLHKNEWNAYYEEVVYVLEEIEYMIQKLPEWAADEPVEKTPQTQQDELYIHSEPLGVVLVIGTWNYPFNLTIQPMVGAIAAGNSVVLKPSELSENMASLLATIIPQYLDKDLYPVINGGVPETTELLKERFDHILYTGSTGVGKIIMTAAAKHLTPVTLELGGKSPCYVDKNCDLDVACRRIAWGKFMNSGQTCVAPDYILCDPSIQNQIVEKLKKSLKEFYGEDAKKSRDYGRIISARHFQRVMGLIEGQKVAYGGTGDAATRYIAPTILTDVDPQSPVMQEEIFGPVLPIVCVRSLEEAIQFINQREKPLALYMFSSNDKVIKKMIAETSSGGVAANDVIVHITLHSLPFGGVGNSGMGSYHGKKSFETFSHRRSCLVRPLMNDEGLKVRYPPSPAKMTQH
Protocol: Human recombinant ALDH1A1/1A3/3A1 was purchased, and 100 mM of KCL, 2 mM of DTT, 1 mM of NAD(P), 10-100 nM of each ALDH, and 10-80 μM of each compound were mixed in Tris buffer (100 mM, pH 7.5), reacted for 30 minutes at 37° C., an equal amount of acetonitrile added, and the reaction stopped. The reaction solution was analyzed by UPLC/MS/MS (Waters). The UPCL chromatogram was carried out over five minutes at a flow rate of 800 μL/min by a linear gradient from 5% acetonitrile 0.01 M ammonium formate/water to 95% acetonitrile 0.01 M ammonium formate/water. An aldehyde-form and carboxylic acid-form probe were detected by the absorbance at a wavelength of 504 nm, and m/z of the MS spectrum at each peak was confirmed to agree with the expected m/z.
For the reaction, 100 mM of KCL, 2 mM of DTT, 1 mM of NAD(P), and five to six concentrations within the range of 10-100 nM of each ALDH and 0.1-80 μM of each probe were selected, mixed in Tris buffer (100 mM, pH 7.5), and reacted for five minutes at 37° C.; an equal amount of acetonitrile was added, and the reaction was stopped. Detection of the aldehyde-form/carboxylic acid-form probes was carried out using the same method as described above by UPLC/MS/MS. Km and Kcat were calculated by fitting the reaction rate at each probe concentration obtained to the Michaelis-Menten equation. A Kaleida Graph ver. 4.1 (Hulinks, Inc.) was used in fitting.
The Kcat ratio (Kcat of ALDH3A1/Kcat of ALDH1A1) was calculated for probe 1, probe 3, and probe 5 as an indicator of ALDH1A1/ALDH3A1 specificity because the probe reaction rate at the actual probe use concentration is believed to be close to Vmax since Km is relatively small (Table 5).

OE21 cells [1] = experiment: Flow cytometry of OE21 cells (positive rate); assay type: cell-based
Protocol: Flow cytometry was carried out using probe 5 and OE21 cells. The cells were treated using trypsin, and the cell density was measured after passing the cells through a cell strainer (40 μm, Corning). […] After centrifuging for three minutes at 1500 rpm and removing the supernatant after the reaction, the cells were washed with chilled medium, centrifuged, and the medium was removed. The cells were again suspended in 100 μL of medium, and 4 μL of SYTOX (registered trademark) Red Dead Cell Stain (Thermo Fisher) was added. After standing for five minutes on ice, 150 μL of medium was added. […] Analysis was carried out using FACS Canto II (BD Biosciences). Excitation was provided by a blue laser (488 nm), and the brightness of probe 5 was detected in each cell by FITC channel (515-545 nm). About 30,000 cells were analyzed in each sample after removing doublets and removing dead cells. The positive gate was set in a range from near to above the upper limit of brightness in the negative control according to ALDEFLUOR assay, so that at most 3% of the cells were present within the gate in the negative control sample. Three independent tests were run.
ALDH3A1 was knocked down using small interference RNA (siRNA) to confirm that the positive group in flow cytometry using 0E21 cells and compound 5 was due to ALDH3A1 activity, and flow cytometry was conducted. Two siRNAs confirmed to be effective (Silencer (registered trademark) Select, s1243 and s1244) and a negative control (Silencer® negative control #1) were purchased from Thermo Fisher. Lipofectamine® RNAiMAX as transfection reagent and Opti-MEM® as diluent were purchased from Thermo Fisher. According to the instruction manual, 300 μL of siRNA-Lipofectamine complex was produced according to the instruction manual so that siRNA was 10 nM and Lipofectamine was 3%, and 250 μL thereof was mixed with 2.5 mL of OE21 cell suspension and sown in six-well dishes. The effect of knockdown was confirmed after six days by Western blotting (FIG. 6a).
Lysates were produced using negative control cells (ctrl) in which ALDH3A1 was not knocked down and cells (KD) in which ALDH3A1 was permanently knocked down. Western blotting was carried out, and pronounced knockdown of ALDH3A1 was confirmed (FIG. 9a). […] The top 25% (top) and bottom 25% (bottom) of fluorescent brightness were sorted out by FACS Aria II using a sample in which the positive and negative were well separated. The respective lysates were produced, Western blotting was carried out using the same, and the expression levels of ALDH3A1 were compared (FIG. 9c).

OE21 cells [2] = experiment: SYTOX Red Dead Cell Stain assay during flow cytometry; assay type: cell-based; details: OE21 shRNA cells, probe 5 with MK-571, SYTOX Red Dead Cell Stain
Protocol: Flow cytometry was carried out using probe 5 and OE21 cells. The cells were treated using trypsin, and the cell density was measured after passing the cells through a cell strainer (40 μm, Corning). A quantity of 500 μL of a cell suspension to make 2.5-5×10^5/mL in medium containing 40 μM of probe 5 was prepared and cultured for 90 minutes at 37° C. After centrifuging for three minutes at 1500 rpm and removing the supernatant after the reaction, the cells were washed with chilled medium, centrifuged, and the medium was removed. The cells were again suspended in 100 μL of medium, and 4 μL of SYTOX (registered trademark) Red Dead Cell Stain (Thermo Fisher) was added. After standing for five minutes on ice, 150 μL of medium was added. A sample with CB7 (10 μM) added was used as a negative control. Analysis was carried out using FACS Canto II (BD Biosciences). Excitation was provided by a blue laser (488 nm), and the brightness of probe 5 was detected in each cell by FITC channel (515-545 nm). About 30,000 cells were analyzed in each sample after removing doublets and removing dead cells. The positive gate was set in a range from near to above the upper limit of brightness in the negative control according to ALDEFLUOR assay, so that at most 3% of the cells were present within the gate in the negative control sample. Three independent tests were run. […]

[3] = 50 μM probe 5, 200 μM MK-571, CB7 20 μM control

CCN(CCOCCNC(=O)c1ccc(-c2c3ccc(=O)cc-3oc3cc(O)ccc23)c(C)c1)c1ccc(C=O)cc1 [Probe 5, 2-(2-(N-ethyl-N-(4-formylphenyl)amino)ethoxy)ethyl-3-methyl-4-(6-hydroxyxanthen-3-on-9-yl)-benzamide]
Km (ALDH3A1): 3.49 ± 0.55 µM | Positive rate in flow cytometry (OE21 cells [1]; 40 μM probe 5, 90 minutes at 37° C., no MK-571, gate set with CB7 10 μM control): 10-15% | Positive rate in flow cytometry with MK-571, ALDH3A1 siRNA knockdown (OE21 cells [1]; [3]): around 10% | Positive rate in flow cytometry with MK-571, cells treated by negative control siRNA (OE21 cells [1]; [3]): about 90% | Positive rate in flow cytometry with MK-571 (OE21 cells [1]; 50 μM probe 5, MK-571 200 μM): about 90% | Dead cells / cell death due to the probe (OE21 cells [2]): virtually no dead cells were found
